Measured values as given in patent US20040120938A1, “Ingestible compositions comprising antibacterial agents” (The University of Bath, priority 1998, published 2004).
Read-outs that look alike come from different tables or passages of the source.

Key:
Escherichia coli NCTC 86 = assay: Peroxynitrite effect on cell viability, viable colony count (Test 8(a)); type: cell-based; settings: E. coli; for IC50: Escherichia coli, NCTC86
Method: To obtain cells used in this test, the infective bacterial strain Escherichia coli NCTC 86 (E. coli) was cultured on nutrient agar at 37° until colony formation occurred, usually overnight. This stock culture was used for subsequent experiments including sub-culturing in nutrient broth and plated onto agar weekly. Experimental cultures of E. coli were set up overnight in nutrient broth from single colonies on an agar plate. Cells were harvested and counted using a standard curve of known absorbance at 470 nm against viable cell count. Peroxynitrite was generated by the method of Crow et al, Biochem. 34, p. 3544-3552 (1995). […] The concentration of ONOO^− formed was measured using an absorption coefficient of 1670 M^−1 cm^−1 in a spectrophotometer at a wavelength of 303 nm. Solutions of different concentrations for use in (a) below were obtained by dilution of the product solution using PBS. Cells cultured as described above were diluted to suitable working concentrations (10^4-10^5 Cells Ml^−1) in sterile phosphate buffered saline (PBS). ONOO^− at a range of concentrations from […] to 0.01 μm was added as a bolus dose to cells and incubated at room temperature for ten minutes. Aliquots were taken from the cell cultures and plated on to nutrient agar and incubated in a warm room at 37° C. overnight. Viable cells formed colonies on the agar and were counted. The number of colonies formed was related to an untreated control and a graph of the results is shown in FIG. 1, which illustrates the effect of ONOO^− on cell viability.

S. enteritidis [1] = assay: Peroxynitrite effect on cell viability (Test 8(a)); type: cell-based; settings: Salmonella enterica
Method: Cells cultured as described above were diluted to suitable working concentrations (10^4-10^5 Cells Ml^−1) in sterile phosphate buffered saline (PBS). ONOO^− at a range of concentrations from […] to 0.01 μm was added as a bolus dose to cells and incubated at room temperature for ten minutes. Aliquots were taken from the cell cultures and plated on to nutrient agar and incubated in a warm room at 37° C. overnight. Viable cells formed colonies on the agar and were counted. The number of colonies formed was related to an untreated control and a graph of the results is shown in FIG. 1, which illustrates the effect of ONOO^− on cell viability.

[2] = system: contaminants of semi-skimmed bovine milk (postulated Lactobacilli sp.); assay: Peroxynitrite addition to semi-skimmed bovine milk, colony forming units (Test 8(b)); type: cell-based; settings: 4° C., four days
Method: Commercially produced bovine milk was purchased in semi-skimmed form. Aliquots were taken on day one of experimentation and plated onto nutrient agar and grown overnight at 37° C. The number of colonies formed following incubation was counted. The remaining milk was divided into three portions after removal of those aliquots. No peroxynitrite was added to the first portion, which was the control. A single bolus dose of 100 μM ONOO^− was added to the second portion on day one, and the third portion was treated by addition of a daily bolus dose of 100 μM ONOO^−. The portions were stored during the four days of the test at a temperature of 4° C. Each day, aliquots were taken from each portion and cultured overnight at 37° C. for viable count determination. […] Although the contaminants were not formally identified, it was postulated that they included at least Lactobacilli sp., that being a cell type often present in milk.

E. coli [3] = assay: Peroxynitrite scavenger and XO systems on bacterial growth curves in nutrient broth (Test 8(d)); type: cell-based
Method: E. coli were seeded into nutrient broth at 2.10^7 cell ml^−1 and incubated at 37° C. under atmospheric air conditions (that is, 21% oxygen saturation). Four separate test samples of volume 1 ml were prepared by addition at 1 hour of incubation as follows:
1 Peroxynitrite at concentration 100 μM.
2 Peroxynitrite at 100 μM and quercetin (peroxynitrite scavenger) at 100 μM.
3 Xanthine oxidase (53.2 μg) and xanthine at 100 μM.
4 Xanthine oxidase (53.2 μg) and NADH at 100 μM.
Corresponding controls were also prepared, and the growth curves generated over time determined by monitoring absorbance.

Lactobacillus casei 6375 = assay: Bacterial growth rate by optical density, 96 well plate (Tests 8(f), 8(g)); type: cell-based; settings: Lacticaseibacillus casei, 6375; Lactobacillus casei; bolus at beginning of logarithmic growth; read-out: Half maximal concentration ONOO -
Method: (§1) Bacteria were seeded into nutrient broth (NB) and grown over night at 37° C. The culture was then counted and normalised to give a final cell concentration of 1.8×10^7 cells well^−1 into the wells of a 96 well plate in fresh nutrient broth. The optical density of each well was monitored every 15 minutes as a measure of the growth rate of each bacterial species. Growth curves were generated for each species and the maximal rate of growth (logarithmic phase) was measured. Cells were treated to a range of experimental conditions in which the growth rate of cells was related to a control of untreated cells. The results were expressed as a percentage of the growth rate of the control cells.
(§2) (i) At a fixed concentration of hypoxanthine (100 μM) a range of purified XO protein concentrations were added at time 0 minutes. The optical density was followed and the growth rate calculated.
(§3) (ii) The growth rate was also measured in relation to the concentration of hypoxanthine, using 30 μg of XO with cells seeded as described above.
(§4) (iv) The effect of XO hypoxanthine addition was measured on the growth rate of a range of bacterial species with 30 […] XO at varying hypoxanthine concentrations using cells seeded as described above.

[4] = system: Staphylococcus aureus 6751; assay: as above; type: cell-based
Method: as §1, §2, §3, §4

E. coli [5] = assay: Xanthine oxidase derived species on cell viability at a range of oxygen concentrations (Test 8(c)); type: cell-based
Method: E. coli were cultured as described above. Aliquots were taken and incubated with a reaction system consisting of bovine Xanthine oxidase (XO) (53.2 μgml^−1), nicotinamide adenine dinucleotide in reduced form (NADH) (300 μM), sodium nitrite, (NaNO2) 1 mM and oxygen at a range of concentrations. Desired oxygen concentrations were generated by delivery into the system of a mixture of oxygen and nitrogen in appropriate proportions and determined using a Clark-type O2 electrode. This reaction was followed at 37° C. for 30 min with mixing before an aliquot was taken and plated onto agar and incubated in a warm room at 37° C. Viable cells formed colonies on the agar and were counted. Viable cell counts were performed in triplicate and the results expressed as a percentage viable count in each case related to a non enzyme control of the same oxygen concentration. […] The range of oxygen tensions used covers those in which XO has previously been considered to be active, namely superoxide generation (21% O2 saturation) and nitric oxide production (0% O2 saturation). A certain amount of killing is seen at both of these extremes as compared with control samples. However, it is only at an intermediate oxygen concentration that the greatest amount of killing is observed. […] Corresponding data obtained in respect of S. enteritidis indicated a peak killing oxygen concentration of 0% for that cell type.
Replacement of NADH in the above method by 100 μM hypoxanthine, with a sodium nitrite concentration of 2.5 μM led to slightly higher peak killing oxygen concentrations (6.4% for E. coli and 1.5% for S. enteritidis).

[6] = system: nitric oxide (NO) release; assay: NO release from pure bovine xanthine oxidase with nitrite and NADH under hypoxia (Tests 1-3); type: biochemical
Method: The production of nitric oxide in the following tests and examples was analysed using an ozone chemiluminescence assay in a continuous flow apparatus (Sievers NOA 280) that allows the real time analysis of NO production. The apparatus was modified to allow a constant stream of nitrogen to flow into the reaction chamber. Chemiluminescence data were collected by a data acquisition system; the mean NO produced in parts per billion (ppb) was calculated from readings taken every second and shown as ppb or mV.
Progress curves, of molar production of NO against time, were calculated by taking into account the gas flow and the mean level of NO. Molar production of NO was expressed as ppb/sec or mV/sec. Reactions were carried out in a final volume of 1 ml at 37° C. in an atmosphere of <1% oxygen (Stathkelvin combination needle oxygen electrode, Diamond General Corp.).
The release of nitric oxide (NO) from a composition including pure bovine xanthine oxidase under hypoxia conditions was studied. The samples studied comprised reduced β-Nicotinamide adenine dinucleotide (NADH) and nitrite (NO2^−) and pure bovine xanthine oxidase.
Bovine xanthine oxidase was diluted with PBS as indicated in Table 1 below to give 300 μl of enzyme mixture. The enzyme mixture (300 μl) was mixed with 700 μl of a substrate mixture to give an assay volume of 1 ml. The substrate mixture comprised nitrite which was added to the assay to give a concentration of 1 mM and NADH which was added to give a concentration of 0.3 mM. Where, for example in Tests 2 to 4 below, additional components are added to the sample, the amount of PBS is adjusted accordingly to give an assay volume of 1 ml. The sample was placed in the reaction vessel of the NO determination apparatus under a nitrogen atmosphere and the generation of NO was measured and the results calculated as a steady state rate in mV/s.
Using the method described above in respect of Test 1, the effect of the variation in the concentration of NADH on the production of NO was investigated. 4 mM NADH was diluted with PBS to give the relevant concentration.
Using the method described above in respect of Test 1, the effect of the variation in the concentration of nitrite on the production of NO was investigated. As for Test 1, the concentration of NADH was 0.3 mM. 1M nitrite (or 100 mM nitrite, where appropriate for low concentrations) was diluted with PBS to give the relevant concentration.

S. enteritidis [7] = assay: Xanthine oxidase derived species on cell viability at a range of oxygen concentrations (Test 8(c)); type: cell-based

## O=NOO [Peroxynitrite]
Escherichia coli NCTC 86; range of concentrations, ten minutes
  effect on cell viability (viable count, FIG. 1): profound inhibitory effect
Escherichia coli NCTC 86; bolus dose, ten minutes at room temperature in PBS, read-out: IC50 (concentration that reduces viability to 50% of control viable count)
  IC50: 1400 nM
Escherichia coli NCTC 86; value matches Test 8(a) viability IC50, read-out: Half maximal concentration ONOO -
  IC50: 1400 nM
S. enteritidis [1]; S. enteritidis, similar conditions, read-out: IC50 (concentration that reduces viability to 50% of control viable count)
  IC50: 2030 nM
S. enteritidis [1]; Salmonella enteritidis, value matches Test 8(a) viability IC50, read-out: Half maximal concentration ONOO -
  IC50: 2000 nM
[2]; daily bolus dose of 100 μM, p<=0.01, also below single dose p<=0.05
  colony forming units (CFU) in milk compared to control: reduced the CFU significantly below control
[2]; single bolus dose of 100 μM on day one, p<=0.01
  colony forming units (CFU) in milk compared to control: reduced the CFU significantly
E. coli [3]; 100 μM added at 1 hour, 21% oxygen saturation
  killing (growth curve): strong killing
Lactobacillus casei 6375
  IC50: 55000 nM
[4]; 6751, Staphylococcus aureus, bolus at beginning of logarithmic growth, read-out: Half maximal concentration ONOO -
  IC50: 290000 nM

## O=c1c(O)c(-c2ccc(O)c(O)c2)oc2cc(O)cc(O)c12 [quercetin]
E. coli [3]; 100 μM with peroxynitrite 100 μM
  effect on peroxynitrite killing: clear effect in reducing killing

## O=c1[nH]c(=O)c2[nH]cnc2[nH]1 [xanthine]
E. coli [5]; XO system, cell type not specified
  killing using xanthine instead of hypoxanthine: More limited killing

## xanthine oxidoreductase [XOR]
[6]; XOR 21.4 μg, nitrite 0 mM, NADH 0.3 mM
  NO release: 0.00 mV/s
[6]; XOR 21.4 μg, nitrite 1 mM, NADH 0.3 mM
  NO release: 53.75 mV/s
[6]; XOR 21.4 μg, nitrite 5 mM, NADH 0.3 mM
  NO release: 184.8 mV/s
[6]; XOR 21.4 μg, nitrite 10 mM, NADH 0.3 mM
  NO release: 378.10 mV/s
[6]; XOR 21.4 μg, nitrite 25 mM, NADH 0.3 mM
  NO release: 407.55 mV/s
[6]; XOR 21.4 μg, nitrite 50 mM, NADH 0.3 mM
  NO release: 474.05 mV/s
[6]; XOR 53.5 μg, NADH 0.00 mM
  NO release: 0.00 mV/s
[6]; XOR 53.5 μg, NADH 0.10 mM
  NO release: 30.45 mV/s
[6]; XOR 53.5 μg, NADH 0.25 mM
  NO release: 66.80 mV/s
[6]; XOR 53.5 μg, NADH 0.50 mM
  NO release: 92.55 mV/s
[6]; XOR 53.5 μg, NADH 1.00 mM
  NO release: 103.35 mV/s
[6]; XOR 53.5 μg, NADH 2.00 mM
  NO release: 109.20 mV/s
[6]; XOR 107.0 μg, NADH 0.00 mM
  NO release: 0.00 mV/s
[6]; XOR 107.0 μg, NADH 0.10 mM
  NO release: 74.45 mV/s
[6]; XOR 107.0 μg, NADH 0.25 mM
  NO release: 142.70 mV/s
[6]; XOR 107.0 μg, NADH 0.50 mM
  NO release: 192.65 mV/s
[6]; XOR 107.0 μg, NADH 1.00 mM
  NO release: 230.05 mV/s
[6]; XOR 107.0 μg, NADH 2.00 mM
  NO release: 264.65 mV/s
[6]; XOR protein in assay 21.4 μg, 1 mM nitrite, 0.3 mM NADH
  NO release: 50.05 mV/s
[6]; XOR protein in assay 53.5 μg, 1 mM nitrite, 0.3 mM NADH
  NO release: 76.35 mV/s
[6]; XOR protein in assay 107.0 μg, 1 mM nitrite, 0.3 mM NADH
  NO release: 128.55 mV/s
[6]; XOR protein in assay 160.5 μg, 1 mM nitrite, 0.3 mM NADH
  NO release: 187.20 mV/s
[6]; XOR protein in assay 214.0 μg, 1 mM nitrite, 0.3 mM NADH
  NO release: 225.75 mV/s
[6]; hypoxic conditions
  optimum pH for the production of NO under the hypoxic conditions: ~5.5
E. coli [5]; E. coli
  killing above about 8% oxygen: little or no killing
E. coli [5]; E. coli, XO 53.2 μg/ml, NADH 300 μM, NaNO2 1 mM, 37° C., 30 min
  oxygen concentration of most effective killing: approximately 3 % of saturation
E. coli [5]; E. coli, oxygen concentration about 21%
  killing: about 5%
S. enteritidis [7]
  killing above about 8% oxygen: little or no killing
S. enteritidis [7]; XO, NADH, NaNO2
  peak killing oxygen concentration: 0%
S. enteritidis [7]; oxygen concentration about 21%
  killing: about 10%
[4]; Staphylococcus, hypoxanthine 100 μM, range of XO concentrations
  growth inhibition: less marked growth inhibition
